# In patent US20240059698A1 (Accutar Biotechnology Inc., priority 2022, published 2024):
# Columns and labels:
# [1] = test system: HCC827-SVD cells (human EGFR exon 20 insertion mutant D770_N771insSVD); assay: Cell growth inhibition (CellTiter-Glo), HCC827-SVD; assay type: cell-based; details: 72 h, 3 days
# Procedure: (§1) Generation of HCC827-SVD, HCC827-ASV, and HCC827-YVMA cell lines. The HCC827-SVD cell line was generated by first transducing HCC827 cells (ATCC) with lentiviral particles expressing codon-optimized human EGFR exon 20 insertion mutant D770_N771insSVD, and then selecting under 5 µg/mL puromycin treatment for a week. The resulting cells were further transduced with lentiviral particles carrying EGFR sgRNA and CAS9 to knockout the endogenous alleles of EGER and then selected under 500 µg/mL hygromycin B treatment for two weeks. The limiting dilution approach was used to subsequently generate the single clone of the HCC827-SVD stable cell line. Endogenous EGFR knockout was confirmed by Sanger sequencing of cell genomic DNA, and expression of exogenous mutant EGFR was verified by Western blot analysis.
# (§2) 2. Cell Growth Inhibition for HCC827, HCC827-SVD, HCC827-ASV, HCC827-YVMA, and A431.
# (§3) HCC827(ATCC), HCC827-SVD, HCC827-ASV, and HCC827-YVMA cells were seeded in 96-well plates at 5000 cells/well in 90 μL of RPMI growth medium containing 10% FBS and 1% Penicillin Streptomycin. A431 (ATCC) cells were seeded in 96-well plates at 5000 cells/well in 90 μL of DMEM growth medium containing 10% FBS and 1% Penicillin Streptomycin. Cells were incubated at 37° C. overnight and then administered with 10 μL 10× test compounds prepared in the growth medium at various concentrations. After administration of the compounds, cells were incubated at 37° C. for 3 days. Before the CellTiter-Glo assay, the plates were equilibrated at room temperature for approximately 30 minutes. 100 ul of CellTiter-Glo reagent (Promega) was added to each well. The plates were then incubated at room temperature for 10 minutes and luminescence was recorded by the EnSight® multimode plate reader (PerkinElmer). Table 7 listed selected compounds in cellular growth assay.
# [2] = test system: HCC827-YVMA cells (human ERBB2 exon20 insertion mutant A775_G776ins YVMA); assay: Cell growth inhibition (CellTiter-Glo), HCC827-YVMA; assay type: cell-based; details: 72 h, HCC827-YVMA cells, 3 days, CellTiter-Glo, read-out: Cell growth inhibition, GI50 (nM) HCC827-YVMA
# Procedure: as §1
# HCC827-ASV and HCC827-YVMA cell lines were generated in a similar approach as HCC827-SVD, except that HCC827 cells (ATCC) were first transduced with lentiviral particles expressing codon-optimized human EGFR exon 20 insertion mutant V769_D770insASV and human ERBB2 exon20 insertion mutant A775_G776ins YVMA, respectively.
# as §2, §3
Structure (SMILES),GI50 [1],GI50 [2]
"C=CC(=O)N1CCC(c2c[nH]c3ncnc(Nc4ccc(Oc5ccnc(Nc6cnccn6)c5)cc4F)c23)CC1 [Compound 78, 1-(4-(4-((2-fluoro-4-((2-(pyrazin-2-ylamino)pyridin-4-yl)oxy)phenyl)amino)-7H-pyrrolo[2,3-d]pyrimidin-5-yl)piperidin-1-yl)prop-2-en-1-one]",200 to 1000 nM,50 to 200 nM
"C=CC(=O)N1CCC(c2c[nH]c3ncnc(Nc4ccc(OCc5ccnc(N6CC7CC7C6)c5)cc4F)c23)CC1 (centres unmarked) [Compound 79, 1-(4-(4-((4-((2-(3-azabicyclo[3.1.0]hexan-3-yl)pyridin-4-yl)methoxy)-2-fluorophenyl)amino)-7H-pyrrolo[2,3-d]pyrimidin-5-yl)piperidin-1-yl)prop-2-en-1-one]",200 to 1000 nM,200 to 1000 nM
"C=CC(=O)N1CCC(c2c[nH]c3ncnc(Nc4ccc(Oc5ccnc(-c6cccc(F)c6)c5)cc4F)c23)CC1 [Compound 82, 1-(4-(4-((2-fluoro-4-((2-(3-fluorophenyl)pyridin-4-yl)oxy)phenyl)amino)-7H-pyrrolo[2,3-d]pyrimidin-5-yl)piperidin-1-yl)prop-2-en-1-one]",> 1000 nM,200 to 1000 nM
"C=CC(=O)N1CCC(c2c[nH]c3ncnc(Nc4ccc(Oc5ccnc(Nc6ccncn6)c5)cc4F)c23)CC1 [Compound 83, 1-(4-(4-((2-fluoro-4-((2-(pyrimidin-4-ylamino)pyridin-4-yl)oxy)phenyl)amino)-7H-pyrrolo[2,3-d]pyrimidin-5-yl)piperidin-1-yl)prop-2-en-1-one]",200 to 1000 nM,50 to 200 nM
"C=CC(=O)N1CCC(c2c[nH]c3ncnc(Nc4ccc(OCc5cc(C6CC6)ccn5)c(Cl)c4)c23)CC1 [Compound 89, 1-(4-(4-((3-chloro-4-((4-cyclopropylpyridin-2-yl)methoxy)phenyl)amino)-7H-pyrrolo[2,3-d]pyrimidin-5-yl)piperidin-1-yl)prop-2-en-1-one]",50 to 200 nM,50 to 200 nM
"C=CC(=O)N1CCC(c2c[nH]c3ncnc(Nc4ccc(Oc5ccnc(NC(=O)C(C)(C)C)c5)cc4F)c23)CC1 [Compound 91, N-(4-(4-((5-(1-acryloylpiperidin-4-yl)-7H-pyrrolo[2,3-d]pyrimidin-4-yl)amino)-3-fluorophenoxy)pyridin-2-yl)pivalamide]",200 to 1000 nM,< 50 nM
"C=CC(=O)N1CCC(c2c[nH]c3ncnc(Nc4ccc(Oc5ccnc(N6CC(N(C)C)C6)c5)cc4F)c23)CC1 [Compound 129, 1-(4-(4-((4-((2-(3-(dimethylamino)azetidin-1-yl)pyridin-4-yl)oxy)-2-fluorophenyl)amino)-7H-pyrrolo[2,3-d]pyrimidin-5-yl)piperidin-1-yl)prop-2-en-1-one]",200 to 1000 nM,200 to 1000 nM
"C=CC(=O)N1CCC(c2c[nH]c3ncnc(Nc4ccc(Oc5ccnc(N6CC(O)(C(C)C)C6)c5)cc4F)c23)CC1 [Compound 130, 1-[4-[4-[2-fluoro-4-[[2-(3-hydroxy-3-isopropyl-azetidin-1-yl)-4-pyridyl]oxy]anilino]-7H-pyrrolo[2,3-d]pyrimidin-5-yl]-1-piperidyl]prop-2-en-1-one]",50 to 200 nM,50 to 200 nM
"C=CC(=O)N1CCC(c2csc3ncnc(Nc4ccc(Oc5ccnc(NC(=O)C6CCCC6)c5)cc4F)c23)CC1 [Compound 161, N-(4-(4-((5-(1-acryloylpiperidin-4-yl)thieno[2,3-d]pyrimidin-4-yl)amino)-3-fluorophenoxy)pyridin-2-yl)cyclopentanecarboxamide]",200 to 1000 nM,50 to 200 nM
"C=CC(=O)N1CCC(c2csc3ncnc(Nc4ccc(Oc5ccnc(NC(=O)C(C)(C)C)c5)cc4F)c23)CC1 [Compound 162, N-(4-(4-((5-(1-acryloylpiperidin-4-yl)thieno[2,3-d]pyrimidin-4-yl)amino)-3-fluorophenoxy)pyridin-2-yl)pivalamide]",> 1000 nM,200 to 1000 nM
"C=CC(=O)N1CCC(c2n[nH]c3ncnc(Nc4ccc(Oc5cccc(S(=O)(=O)NC6CC(F)(F)C6)c5)cc4F)c23)CC1 [Compound 185, 3-(4-((3-(1-acryloylpiperidin-4-yl)-1H-pyrazolo[3,4-d]pyrimidin-4-yl)amino)-3-fluorophenoxy)-N-(3,3-difluorocycloButyl)benzenesulfonamide]",50 to 200 nM,50 to 200 nM
"C=CC(=O)N1CCC(c2n[nH]c3ncnc(Nc4ccc(Oc5ccnc(NC(=O)C(C)(C)C)c5)cc4F)c23)CC1 [Compound 192, N-(4-(4-((3-(1-acryloylpiperidin-4-yl)-1H-pyrazolo[3,4-d]pyrimidin-4-yl)amino)-3-fluorophenoxy)pyridin-2-yl)pivalamide]",50 to 200 nM,50 to 200 nM

# Now from value to compound:
GI50 [1],GI50 [2],Structure (SMILES)
< 50 nM,< 50 nM,"C=CC(=O)N1CCC(c2c[nH]c3ncnc(Nc4ccc(OCc5ccc6sccc6n5)c(Cl)c4)c23)CC1 [Compound 75, 1-(4-(4-((3-chloro-4-(thieno[3,2-b]pyridin-5-ylmethoxy)phenyl)amino)-7H-pyrrolo[2,3-d]pyrimidin-5-yl)piperidin-1-yl)prop-2-en-1-one]"
< 50 nM,< 50 nM,"C=CC(=O)N1CCC(c2c(C)[nH]c3ncnc(Nc4ccc(OCc5ccccn5)c(Cl)c4)c23)CC1 [Compound 76, 1-(4-(4-((3-chloro-4-(pyridin-2-ylmethoxy)phenyl)amino)-6-methyl-7H-pyrrolo[2,3-d]pyrimidin-5-yl)piperidin-1-yl)prop-2-en-1-one]"
< 50 nM,< 50 nM,"C=CC(=O)N1CCC(c2c[nH]c3ncnc(Nc4ccc(OCc5cncnc5)c(Cl)c4)c23)CC1 [Compound 77, 1-(4-(4-((3-chloro-4-(pyrimidin-5-ylmethoxy)phenyl)amino)-7H-pyrrolo[2,3-d]pyrimidin-5-yl)piperidin-1-yl)prop-2-en-1-one]"
< 50 nM,< 50 nM,"C=CC(=O)N1CCC(c2c[nH]c3ncnc(Nc4ccc(OCc5cncc(OC)c5)c(Cl)c4)c23)CC1 [Compound 80, 1-(4-(4-((3-chloro-4-((5-methoxypyridin-3-yl)methoxy)phenyl)amino)-7H-pyrrolo[2,3-d]pyrimidin-5-yl)piperidin-1-yl)prop-2-en-1-one]"
50 to 200 nM,50 to 200 nM,"C=CC(=O)N1CCC(c2c[nH]c3ncnc(Nc4ccc(OCc5ccnn5CC)c(Cl)c4)c23)CC1 [Compound 81, 1-(4-(4-((3-chloro-4-((1-ethyl-1H-pyrazol-5-yl)methoxy)phenyl)amino)-7H-pyrrolo[2,3-d]pyrimidin-5-yl)piperidin-1-yl)prop-2-en-1-one]"
< 50 nM,50 to 200 nM,"C=CC(=O)N1CCC(c2c[nH]c3ncnc(Nc4ccc(OCc5ccnc(NC6CCC6)c5)cc4F)c23)CC1 [Compound 84, 1-(4-(4-((4-((2-(cycloButylamino)pyridin-4-yl)methoxy)-2-fluorophenyl)amino)-7H-pyrrolo[2,3-d]pyrimidin-5-yl)piperidin-1-yl)prop-2-en-1-one]"
50 to 200 nM,50 to 200 nM,"C=CC(=O)N1CCC(c2c[nH]c3ncnc(Nc4ccc(OCc5cn(C(C)C)cn5)c(Cl)c4)c23)CC1 [Compound 85, 1-(4-(4-((3-chloro-4-((1-isopropyl-1H-imidazol-4-yl)methoxy)phenyl)amino)-7H-pyrrolo[2,3-d]pyrimidin-5-yl)piperidin-1-yl)prop-2-en-1-one]"
< 50 nM,< 50 nM,"C=CC(=O)N1CCC(c2c[nH]c3ncnc(Nc4ccc(OCc5cncs5)c(Cl)c4)c23)CC1 [Compound 86, 1-(4-(4-((3-chloro-4-(thiazol-5-ylmethoxy)phenyl)amino)-7H-pyrrolo[2,3-d]pyrimidin-5-yl)piperidin-1-yl)prop-2-en-1-one]"
50 to 200 nM,50 to 200 nM,"C=CC(=O)N1CCC(c2c[nH]c3ncnc(Nc4ccc(OCc5cnc(C(F)(F)F)s5)c(Cl)c4)c23)CC1 [Compound 87, 1-(4-(4-((3-chloro-4-((2-(trifluoromethyl)thiazol-5-yl)methoxy)phenyl)amino)-7H-pyrrolo[2,3-d]pyrimidin-5-yl)piperidin-1-yl)prop-2-en-1-one]"
50 to 200 nM,50 to 200 nM,"C=CC(=O)N1CCC(c2c[nH]c3ncnc(Nc4ccc(OCc5cccc(C6CC6)n5)c(Cl)c4)c23)CC1 [Compound 88, 1-(4-(4-((3-chloro-4-((6-cyclopropylpyridin-2-yl)methoxy)phenyl)amino)-7H-pyrrolo[2,3-d]pyrimidin-5-yl)piperidin-1-yl)prop-2-en-1-one]"
